What was measured:
Assay in all cases: c-Kit assay: Ba/F3 KIT mutant cell viability (Cell Titer-Glo, 72 hours)
Assay type in all cases: cell-based
Settings in all cases: viability after 72 hours
BAF3 FL KIT EX11DEL = target: T1, BAF3 FL KIT EX11DEL (Homo sapiens, UniProt P10721, cells depend on it, form not given)
T1 construct: BAF3 FL KIT EX11DEL
Method: (§1) Generation of DBa/F3 KIT Mutant Engineered Cell Lines
(§2) KIT cDNAs were synthesized by GenScript and cloned into the pLVX-IRES-Puro vector (Clontech). Viral particles were produced by transfecting pLVX-IRES-puro vectors containing KIT mutant genes into HEK293 cells (Invitrogen) using the Trans-Lentiviral ORF Packaging Kit (Thermo Scientific). 48 hours post-transfection, virus-containing supernatants were harvested and incubated for another 48-72 hours with parental Ba/F3 cells (DSMZ) in the presence of 10 ng/mL IL-3 (R&D Systems). Transduced Ba/F3 cells were then selected by IL-3 withdrawal and puromycin (0.5-1 μg/mL, Invitrogen).
(§3) Cell lines (e.g., EX11DEL, EX11DEL/D816H, EX11DEL/T670I, and EX11DEL/V654A) were plated into 384 well plates using RPMI 1640 supplemented with 10% FBS at densities that produced linear growth and incubated at 37° C. in 5% (v/v) CO2. Cells were treated with eight concentrations of compound over a 4-fold dilution (10 μM to 0.61 nM) and viability was assessed using Cell Titer-Glo assay (Promega) after 72 hours. Data were plotted as percent viability relative to vehicle-treated cells. Dose-responses curves were generated and used to calculate IC50 values.

[1] = target: T2, BAF3 FL KIT EX11DEL/D816H (Homo sapiens, UniProt P10721, D816H, cells depend on it, form not given)
T2 construct: BAF3 FL KIT EX11DEL/D816H
Method: as §1, §2, §3

[2] = target: T3, BAF3 FL KIT EX11DEL/T670I (Homo sapiens, UniProt P10721, T670I, cells depend on it, form not given)
T3 construct: BAF3 FL KIT EX11DEL/T670I
Method: as §1, §2, §3

[3] = target: T4, BAF3 FL KIT EX11DEL/V654A (Homo sapiens, UniProt P10721, V654A, cells depend on it, form not given)
T4 construct: BAF3 FL KIT EX11DEL/V654A
Method: as §1, §2, §3

T2 sequence (P10721 with tags, fused parts or gaps DEL557-558/D816H, form open): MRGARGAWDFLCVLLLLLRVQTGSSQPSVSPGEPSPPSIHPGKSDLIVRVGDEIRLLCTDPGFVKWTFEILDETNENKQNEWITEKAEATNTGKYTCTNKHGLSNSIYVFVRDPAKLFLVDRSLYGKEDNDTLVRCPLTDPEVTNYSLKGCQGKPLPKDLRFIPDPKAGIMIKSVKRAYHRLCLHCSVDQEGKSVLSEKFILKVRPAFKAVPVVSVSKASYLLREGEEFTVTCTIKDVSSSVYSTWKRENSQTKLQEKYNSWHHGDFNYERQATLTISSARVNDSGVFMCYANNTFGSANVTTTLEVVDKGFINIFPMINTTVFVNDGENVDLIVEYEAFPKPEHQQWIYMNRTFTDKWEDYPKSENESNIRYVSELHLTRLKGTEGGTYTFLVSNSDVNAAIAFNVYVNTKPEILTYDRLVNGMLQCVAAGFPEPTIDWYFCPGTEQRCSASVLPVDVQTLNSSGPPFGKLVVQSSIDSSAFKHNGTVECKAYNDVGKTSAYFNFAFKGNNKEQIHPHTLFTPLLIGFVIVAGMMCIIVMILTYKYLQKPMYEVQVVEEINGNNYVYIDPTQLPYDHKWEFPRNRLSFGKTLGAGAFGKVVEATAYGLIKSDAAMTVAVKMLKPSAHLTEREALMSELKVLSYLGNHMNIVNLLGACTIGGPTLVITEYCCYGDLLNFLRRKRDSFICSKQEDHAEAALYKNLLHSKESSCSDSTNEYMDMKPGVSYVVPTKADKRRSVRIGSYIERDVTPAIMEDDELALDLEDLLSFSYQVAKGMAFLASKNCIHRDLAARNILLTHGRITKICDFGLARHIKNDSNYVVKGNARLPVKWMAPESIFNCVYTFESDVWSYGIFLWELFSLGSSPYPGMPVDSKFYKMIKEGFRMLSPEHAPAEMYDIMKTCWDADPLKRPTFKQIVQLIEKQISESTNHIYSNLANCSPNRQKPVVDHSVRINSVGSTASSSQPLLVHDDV
T1 sequence (P10721 with tags, fused parts or gaps DEL557-558): as the sequence (P10721 with tags, fused parts or gaps DEL557-558/D816H, form open) above, with H814D counted along it
T4 sequence (P10721 with tags, fused parts or gaps DEL557-558/V654A, form open): as the sequence (P10721 with tags, fused parts or gaps DEL557-558/D816H, form open) above, with V652A, H814D counted along it
T3 sequence (P10721 with tags, fused parts or gaps DEL557-558/T670I, form open): as the sequence (P10721 with tags, fused parts or gaps DEL557-558/D816H, form open) above, with T668I, H814D counted along it

Row | Compound | GI50 (BAF3 FL KIT EX11DEL) [µM] | GI50 [1] [µM] | GI50 [2] [µM] | GI50 [3] [µM]
1 | Cc1ccc(C(=O)Nc2cc(C(F)(F)F)ccn2)cc1C#Cc1cnc(NC(=O)N(C)C)s1 [I-1, 3-((2-(3,3-dimethylureido)thiazol-5-yl)ethynyl)-4-methyl-N-(4-(trifluoromethyl)pyridin-2-yl)benzamide] | < 0.01 | < 0.01 | < 0.01 | < 0.01
2 | Cc1ccc(C(=O)Nc2cc(C(F)(F)F)ccn2)cc1C#Cc1cnc(NC(N)=O)s1 [I-2, 4-methyl-N-(4-(trifluoromethyl)pyridin-2-yl)-3-((2-ureidothiazol-5-yl)ethynyl)benzamide] | < 0.01 | 0.01 to 0.05 | < 0.01 | < 0.01
3 | COC(=O)Nc1ncc(C#Cc2cc(C(=O)Nc3cc(C(F)(F)F)ccn3)ccc2C)s1 [I-3, methyl (5-((2-methyl-5-((4-(trifluoromethyl)pyridin-2-yl)carbamoyl)phenyl)ethynyl)thiazol-2-yl)carbamate] | < 0.01 | 0.01 to 0.05 | 0.01 to 0.05 | 0.01 to 0.05
4 | CNC(=O)Nc1ncc(C#Cc2cc(C(=O)Nc3cc(C(F)(F)F)ccn3)ccc2C)s1 [I-4, 4-methyl-3-((2-(3-methylureido)thiazol-5-yl)ethynyl)-N-(4-(trifluoromethyl)pyridin-2-yl)benzamide] | < 0.01 | < 0.01 | < 0.01 | 0.01 to 0.05
5 | COCCNC(=O)Nc1ncc(C#Cc2cc(C(=O)Nc3cc(C(F)(F)F)ccn3)ccc2C)s1 [I-5, 3-((2-(3-(2-methoxyethyl)ureido)thiazol-5-yl)ethynyl)-4-methyl-N-(4-(trifluoromethyl)pyridin-2-yl)benzamide] | < 0.01 | 0.01 to 0.05 | 0.01 to 0.05 | 0.01 to 0.05
6 | Cc1ccc(C(=O)Nc2cc(C(F)(F)F)ccn2)cc1C#Cc1cnc(NC(=O)NCCN2CCOCC2)s1 [I-6, 4-methyl-3-((2-(3-(2-morpholinoethyl)ureido)thiazol-5-yl)ethynyl)-N-(4-(trifluoromethyl)pyridin-2-yl)benzamide] | < 0.01 | 0.01 to 0.05 | 0.01 to 0.05 | 0.01 to 0.05
7 | COCCN(C)C(=O)Nc1ncc(C#Cc2cc(C(=O)Nc3cc(C(F)(F)F)ccn3)ccc2C)s1 [I-7, 3-((2-(3-(2-methoxyethyl)-3-methylureido)thiazol-5-yl)ethynyl)-4-methyl-N-(4-(trifluoromethyl)pyridin-2-yl)benzamide] | < 0.01 | 0.01 to 0.05 | < 0.01 | 0.01 to 0.05
8 | CCN(C)C(=O)Nc1ncc(C#Cc2cc(C(=O)Nc3cc(C(F)(F)F)ccn3)ccc2C)s1 [I-8, 3-((2-(3-ethyl-3-methylureido)thiazol-5-yl)ethynyl)-4-methyl-N-(4-(trifluoromethyl)pyridin-2-yl)benzamide] | < 0.01 | < 0.01 | < 0.01 | 0.01 to 0.05
9 | Cc1ccc(C(=O)Nc2cc(C(F)(F)F)ccn2)cc1C#Cc1cnc(NC(=O)N(C)CCN(C)C)s1 [I-9, 3-((2-(3-(2-(dimethylamino)ethyl)-3-methylureido)thiazol-5-yl)ethynyl)-4-methyl-N-(4-(trifluoromethyl)pyridin-2-yl)benzamide] | < 0.01 | 0.01 to 0.05 | < 0.01 | 0.01 to 0.05
10 | Cc1ccc(C(=O)Nc2cc(C(F)(F)F)ccn2)cc1C#Cc1cnc(NC(=O)N(C)CCO)s1 [I-10, 3-((2-(3-(2-hydroxyethyl)-3-methylureido)thiazol-5-yl)ethynyl)-4-methyl-N-(4-(trifluoromethyl)pyridin-2-yl)benzamide] | < 0.01 | < 0.01 | < 0.01 | < 0.01
11 | Cc1ccc(C(=O)Nc2cc(C(F)(F)F)ccn2)cc1C#Cc1cnc(NC(=O)NCCN(C)C)s1 [I-11, 3-((2-(3-(2-(dimethylamino)ethyl)ureido)thiazol-5-yl)ethynyl)-4-methyl-N-(4-(trifluoromethyl)pyridin-2-yl)benzamide] | < 0.01 | 0.01 to 0.05 | 0.01 to 0.05 | 0.01 to 0.05
12 | Cc1ccc(C(=O)Nc2cc(C(F)(F)F)ccn2)cc1C#Cc1cnc(NC(=O)NCCN2CCCC2)s1 [I-12, 4-methyl-3-((2-(3-(2-(pyrrolidin-1-yl)ethyl)ureido)thiazol-5-yl)ethynyl)-N-(4-(trifluoromethyl)pyridin-2-yl)benzamide] | < 0.01 | 0.01 to 0.05 | 0.05 to 0.1 | 0.05 to 0.1
13 | Cc1ccc(C(=O)Nc2cc(C(F)(F)F)ccn2)cc1C#Cc1cnc(NC(=O)NCC2CCN(C)CC2)s1 [I-13, 4-methyl-3-((2-(3-((1-methylpiperidin-4-yl)methyl)ureido)thiazol-5-yl)ethynyl)-N-(4-(trifluoromethyl)pyridin-2-yl)benzamide] | < 0.01 | 0.01 to 0.05 | 0.01 to 0.05 | 0.01 to 0.05
14 | Cc1ccc(C(=O)Nc2cc(C(F)(F)F)ccn2)cc1C#Cc1cnc(NC(=O)NCCN2CCN(C)CC2)s1 [I-14, 4-methyl-3-((2-(3-(2-(4-methylpiperazin-1-yl)ethyl)ureido)thiazol-5-yl)ethynyl)-N-(4-(trifluoromethyl)pyridin-2-yl)benzamide] | < 0.01 | 0.01 to 0.05 | 0.01 to 0.05 | 0.01 to 0.05
15 | Cc1ccc(C(=O)Nc2cc(C(F)(F)F)ccn2)cc1C#Cc1cnc(NC(=O)NCC(C)(C)O)s1 [I-15, 3-((2-(3-(2-hydroxy-2-methylpropyl)ureido)thiazol-5-yl)ethynyl)-4-methyl-N-(4-(trifluoromethyl)pyridin-2-yl)benzamide] | < 0.01 | 0.01 to 0.05 | 0.01 to 0.05 | 0.01 to 0.05
16 | Cc1ccc(C(=O)Nc2cc(C(F)(F)F)ccn2)cc1C#Cc1cnc(NC(=O)N(C)CCN2CCN(C)CC2)s1 [I-16, 4-methyl-3-((2-(3-methyl-3-(2-(4-methylpiperazin-1-yl)ethyl)ureido)thiazol-5-yl)ethynyl)-N-(4-(trifluoromethyl)pyridin-2-yl)benzamide] | < 0.01 | 0.01 to 0.05 | < 0.01 | 0.01 to 0.05
17 | Cc1ccc(C(=O)Nc2cc(C(F)(F)F)ccn2)cc1C#Cc1cnc(NC(=O)NC2CC2)s1 [I-17, 3-((2-(3-cyclopropylureido)thiazol-5-yl)ethynyl)-4-methyl-N-(4-(trifluoromethyl)pyridin-2-yl)benzamide] | < 0.01 | 0.01 to 0.05 | 0.01 to 0.05 | 0.01 to 0.05
18 | Cc1ccc(C(=O)Nc2cc(C(F)(F)F)ccn2)cc1C#Cc1cnc(NC(=O)NCCN2CCC(O)C2)s1 (stereo not drawn) [I-18, 3-((2-(3-(2-(3-hydroxypyrrolidin-1-yl)ethyl)ureido)thiazol-5-yl)ethynyl)-4-methyl-N-(4-(trifluoromethyl)pyridin-2-yl)benzamide] | < 0.01 | 0.01 to 0.05 | 0.01 to 0.05 | 0.01 to 0.05
19 | Cc1ccc(C(=O)Nc2cc(C(F)(F)F)ccn2)cc1C#Cc1cnc(NC(=O)N(C)CCN2CCCC2)s1 [I-19, 4-methyl-3-((2-(3-methyl-3-(2-(pyrrolidin-1-yl)ethyl)ureido)thiazol-5-yl)ethynyl)-N-(4-(trifluoromethyl)pyridin-2-yl)benzamide] | < 0.01 | 0.01 to 0.05 | 0.01 to 0.05 | 0.01 to 0.05
20 | Cc1ccc(C(=O)Nc2cc(C(F)(F)F)ccn2)cc1C#Cc1cnc(NC(=O)N(C)CC2CCCN2C)s1 (stereo not drawn) [I-20, 4-methyl-3-((2-(3-methyl-3-((1-methylpyrrolidin-2-yl)methyl)ureido)thiazol-5-yl)ethynyl)-N-(4-(trifluoromethyl)pyridin-2-yl)benzamide] | < 0.01 | 0.01 to 0.05 | 0.01 to 0.05 | 0.01 to 0.05
21 | Cc1ccc(C(=O)Nc2cc(C(F)(F)F)ccn2)cc1C#Cc1cnc(NC(=O)N(C)CC(C)(C)O)s1 [I-21, 3-((2-(3-(2-hydroxy-2-methylpropyl)-3-methylureido)thiazol-5-yl)ethynyl)-4-methyl-N-(4-(trifluoromethyl)pyridin-2-yl)benzamide] | < 0.01 | 0.01 to 0.05 | 0.01 to 0.05 | 0.01 to 0.05
22 | Cc1ccc(NC(=O)c2cc(C(F)(F)F)ccn2)cc1C#Cc1cnc(NC(=O)N(C)C2CCN(C)CC2)s1 [I-53, N-(4-methyl-3-((2-(3-methyl-3-(I-methylpiperidin-4-yl)ureido)thiazol-5-yl)ethynyl)phenyl)-4-(trifluoromethyl)picolinamide] | – | 0.01 to 0.05 | 0.05 to 0.1 | 0.01 to 0.05
23 | Cc1ccc(NC(=O)c2cc(C(F)(F)F)ccn2)cc1C#Cc1cnc(NC(=O)N(C)CCN2CCN(C)CC2)s1 [I-55, N-(4-methyl-3-((2-(3-methyl-3-(2-(4-methylpiperazin-1-yl)ethyl)ureido)thiazol-5-yl)ethynyl)phenyl)-4-(trifluoromethyl)picolinamide] | – | 0.01 to 0.05 | 0.05 to 0.1 | 0.01 to 0.05
